Results reported in patent US9028855B2, “Plant additives and uses thereof to modulate the synthesis of membrane glycerolipids in planta” (Commissariat a l'Energie Atomique et aux Energies …, priority 2009, dated 2015).

Tests used:
wild type seedlings [1] = assay: Starch accumulation (Lugol/iodine staining); assay type: in vivo, A. thaliana; conditions: MC2 5 μM; same response as phosphate deficiency (starch strongly accumulated), FIG. 7
Procedure: Leaves were immersed in ethanol (96%) for 6 h to remove pigment and stained with Lugol solution (Fluka) for 30 min to make the starch granules visible.

ferritin = assay: Western blot of plant ferritin on leaf protein extracts; assay type: in vivo; conditions: leaves, high phosphate medium + MC2 5 μM, FIG. 12
Excerpt: After SDS-PAGE in a 12% acrylamide gel and transfer onto a nitrocellulose membrane, ferritin was immunodetected with a primary rabbit polyclonal antibody against AtFER1 and a secondary goat antirabbit antibody conjugated with alkaline phosphatase.
From previous study in the lab, it is known that in response to phosphate starvation, iron is accumulated in cells inducing ferritin accumulation (Hirsch et al., 2006). To determine MC2 effect on iron metabolism, the iron content was quantified by ICP-OES (FIG. 11), accumulation of ferritin was analyzed by Western Blot (FIG. 12) and finally IRT1 gene expression was analyzed, since this gene encodes an iron transporter (FIG. 12).

[2] = tested on: phosphate transporter PHT1;4; assay: 8′G::GUS, follow-up of the expression of the phosphate transporter PHT1;4 (GUS staining); assay type: in vivo, A. thaliana; conditions: compound added to the cultivation medium
Excerpt: 8′G cell line was obtained as follows: for the PHT1;4 promoter fusion, a 2 kb region upstream of the ORF of PHT1;4 was cloned in the vector pENTR/D-TOPO (pENTRT™/D-TOPO® Cloning Kit, ref. K2400-20, Invitrogen) and transferred to pKGWFS7 (Karimi et al., 2002) by recombination using Gateway BP (Gateway® BP Clonase® enzyme mix, ref. 11789-013, Invitrogen) and LR Clonase enzyme mixes (LR Clonase® II Plus enzyme, ref. 12538-120, Invitrogen), respectively, to produce the pPHT1;4:GUS-GFP gene fusion. This fusion was then introduced into the Arabidopsis genome via the Agrobacterium-mediated transformation system (Logemann et al., 2006).
Plants were examined for GUS activity by dipping the samples in a GUS staining solution (50 mM sodium phosphate buffer pH 7.0; 0.01% Triton X-100, 1 mM K3Fe(CN)6, 1 mM K4Fe(CN)6, 1 mg/ml 5-dromo-4-chloro-3-indolyl (3-D-GLUCURONIDE (X-Gluc A) and incubated at 37° C. over-night. After staining, the plants were fixed 2 hours in 50 mM sodium phosphate buffer pH 7.0; 1% glutaraldehyde; 4% formaldehyde.

Cyclin B1 = assay: CycB1::GUS, follow-up of the expression of the gene encoding Cyclin B1 (meristematic activity marker); assay type: in vivo, A. thaliana; conditions: high phosphate medium + MC2 5 μM, FIG. 6
Excerpt: pCycB1;1:GUS cell line is as described by Colón-Carmona et al. (Colon-Carmona et al., 1999), and expresses the GUS reporter under the control of the promoter of the cyclin B1 gene. […] In response to phosphate deficiency, CycB1 is less expressed. Suprisingly, in response to MC2, the meristematic activity is not reduced (FIG. 6). Thus, it can be concludes that the primary root growth inhibition observed in response to the molecule is not due to inhibition of the meristematic activity.

wild type seedlings [3] = assay: Anthocyanins content (spectrophotometric); assay type: in vivo, A. thaliana; parameters: key to Antho: anthocyanin content as A530 - 2.2*A652
Procedure: Anthocyanins were extracted with propanol:HCl:H2O (81:1:18) for 5 min at room temperature and 3 min at 100° C. Samples are centrifuged for 10 min at 4° C. Supernatants were collected and absorption measured at 530 nm and […]. Anthocyanin content was calculated as A530-2.2A652 (Lange et al., 1971).

Medicago truncatula = assay: Root growth of Medicago truncatula in phosphate deficient medium; assay type: in vivo; conditions: phosphate 10 μM, MC2 5 μM, 10 days, FIG. 14
Procedure: Medicago truncatula seeds were surface-sterilized as follow: soaking in concentrated sulphuric acid for 10 min, rinsing three times with sterile distilled water, soaking in 10% bleach/0.1% Tween 20 solution for 10 min with gentle agitation and finally by rinsing seeds three times with sterile distilled water. Seeds were germinated 48 h in dark. […] In the phosphate (Pi) deficient medium, NaCl (0.5 mM) was used to replace the equivalent amount of sodium provided by NaH2PO4.). Plants were maintained 10 days under a 14 h light/10 h 150 μm^−2s^−1 dark regime with a temperature of 22/18° C. for light/dark phases in a phytotron.

wild-type seedlings = assay: Free cellular Pi content (malachite green method); assay type: in vivo, A. thaliana; conditions: high phosphate medium + MC2 5 μM vs control condition, FIG. 3
Procedure: Three replicates were performed for each experiment. After 5 min of centrifugation, the supernatant was recovered. Phosphate content was measured using the malachite green method as described (Delhaize and Randall, 1995). One hundred and fifty microliters of molybdate solution (17.55 g/l (NH4)6Mo7, 4H2O, 2M H2SO4) were added to the sample (50 μl) diluted in water (700 μl). Ten minutes later, 150 μl of green malachite solution (3.5 g/l polyvinylic alcohol, 0.35 g/l malachite green) were then added. Measurements were carried out at 610 nm after 2 h. Concentrations were calculated using a calibration curve (performed with aKH2PO4 solution) and expressed per fresh weight. To evaluate if this expression interferes with phosphate content, phosphate content was analyzed in different conditions: high phosphate medium (+Pi), low phosphate medium (−Pi) and high phosphate medium+MC2, 5 μM (+Pi, +MC2 5 μM). […] This phosphate accumulation can be easily explained by the overexpression of the phosphate transporter.

iron transporter IRT1 = assay: IRT1::GUS, follow-up of the expression of the gene encoding the iron transporter IRT1 (GUS staining); assay type: in vivo, A. thaliana; conditions: compound added to the cultivation medium; MC2 5 μM, FIG. 13
Procedure: pIRT1:GUS cells were obtained as described by Vert et al. (Vert et al., 2002) and carry a irt1 promoter-GUS fusion. […] Plants were examined for GUS activity by dipping the samples in a GUS staining solution (50 mM sodium phosphate buffer pH 7.0; 0.01% Triton X-100, 1 mM K3Fe(CN)6, 1 mM K4Fe(CN)6, 1 mg/ml 5-dromo-4-chloro-3-indolyl (3-D-GLUCURONIDE (X-Gluc A) and incubated at 37° C. over-night. After staining, the plants were fixed 2 hours in 50 mM sodium phosphate buffer pH 7.0; 1% glutaraldehyde; 4% formaldehyde.

A. thaliana = assay: Root growth (primary root) of plants on high phosphate medium supplied with compound; assay type: in vivo; conditions: expressed as a percentage having regard to a control; +P control 100, −P 20
Excerpt: In response to phosphate starvation, the primary root growth is inhibited (Svistoonoff et al., 2007).

## Cc1cccc(NC=C2C(=O)CC(C)(C)CC2=O)n1 [MC2]
Wild type seedlings [1]
  starch accumulation (in words): same response
ferritin
  ferritin accumulation (Western blot): not in response to MC2 treatment
[2]
  PHT1;4 expression (in words, summary of analogues): induce expression of the Pht1;4 gene
Cyclin B1
  meristematic activity (CycB1 expression, in words): not reduced
Wild type seedlings [3]; MC2 5 μM, FIG. 8
  anthocyanins accumulation (in words): strong accumulation
Wild type seedlings [3]; accumulation of anthocyanes, +P control 46, −P 1008
  Antho: 454
Medicago truncatula
  growth of roots in a Pi deficient medium: improved
wild-type seedlings
  phosphate accumulation in leaves: two times more
  phosphate accumulation in roots: two times more
Iron transporter IRT1
  IRT1 expression (in words): inhibits IRT1 expression
A. thaliana
  Root Growth: 51 % of control
